Where two headings read alike, the source gives them in different places.
What was measured:
[1] = Phase 1 food effect study Part 2 (Cohort 5), single 500 mg dose fed vs fasted; assay type: in vivo, human; details: LYT-100 @500 mg single dose
Protocol: The comparison will be based on Day 1, Day 2 and Day 3 PK plasma samples after the first dose of study drug on Day 1 under fast and fed conditions of Part 2.
Subjects will be admitted to the CRU on Day-1 and will fast overnight for at least 10 h.

[2] = 91-day repeat dose oral toxicity and toxicokinetics study in rats; details: for Ratio of exposure (AUC), Group 4 (LYT-100 at 750 mg/kg) analyte / Group 5 (SD-559 at 750 mg/kg) analyte: LYT-100/SD-559, SD-790/SD-788, SD-1051/SD-1050, SD-789 Group 4/SD-789 Group 5; for Cmax in rat relative to human: male rat Day 1 vs human; for Exposure in rats relative to humans after 28 days of daily dosing: male rat Day 28 vs human; for Exposure (AUC) in rat relative to human: male rats 750 mg/kg Day 1 vs human single 801 mg dose; for Dose proportionality of AUC0-24 over 250 to 750 mg/kg / Dose proportionality of Cmax over 250 to 750 mg/kg: rats dosed with SD-560, Groups 2 to 4, general statement
Protocol: The original male TK animals received 1000 mg/kg of SD-559 on Day 1 and continued on study. The protocol was amended to add additional TK male animals in Group 6 for Day 1 collection of TK samples at 875 mg/kg.
Blood samples were collected from 3 subsets of 3 animals/sex on Day 1 and Day 28 at pre-dose, 0.25, 0.5, 1, 2, 4. 8 and 24 hours (hr) post-dose for groups 2 to 6 and from one subset of 3 animals/sex at 0.25 hr post-dose for the vehicle group (group 1). […] Non-compartmental analysis (NCA) of plasma concentration data was conducted using Phoenix® WinNonlin®, version 8.0.

[3] = humans, cited from earlier work
[4] = Phase 1 multiple ascending dose (MAD) study Part 1, healthy volunteers (PK and safety); details: for Accumulation ratios (AUC96-108/AUC0-12) across all dose groups: 100 mg, 250 mg, 500 mg, and 750 mg BID, Cohorts 1-4, FIG. 19; for Average ratio to the parent (M/P) by AUC: range in brackets
Protocol: Up to 5 dosing cohorts are planned in Part 1.
Additional cohorts and intermediate doses may be selected in lieu of predefined doses as noted and in accordance with safety and tolerability responses, but doses will not exceed 1000 mg BID or a total daily dose of 2000 mg.
A standardised lunch will be served ≥4 h post breakfast and ≥4 h prior to dinner. An evening snack will be served ≥3 h following evening study medication administration. No additional fluids will be allowed during the 1 h pre- and post-doses. On Day 6, subjects will replicate mealtimes as scheduled on Day 1-5.
Plasma PK parameters (non-compartmental or compartmental analysis as appropriate) will include, but are not limited to: • Following single dose: Tmax, tlag, Cmax, AUC0-4, AUC0-last, t1/2, AUC0-inf, lambda z, %AUCext, CL/F, Vz/F, Cmax/D, AUC0-last/D, AUC0-inf/D and MRT (D is dose) • After repeated doses: Ctrough, Ctrough/D • Following repeated doses on last day: Tmax, Cmax, Cavg, tlag, t1/2, AUC0-4, AUC0-last; AUC0-inf, lambda z, %AUCext, CLss/F, Vzss/F, MRT, PTF, Rac(AUC), Rac(Cmax), Cmax/D, AUClast/D, AUC0-inf/D and Rae (accumulation ratio).

[5] = 200 mg SD-559 (pirfenidone) BID, Huang et al.; in ng/mL; cited from earlier work
[6] = Single 801 mg dose, double-blinded, cross-over study of LYT-100 vs pirfenidone in healthy volunteers (PK and safety); details: for Cmax (ng/mL), Mean / AUC0-t (hr*ng/mL), Mean / tmax (hr), Median / % AUC extrap, Mean / AUC(inf) (hr*ng/mL), Mean / Kel (1/hr), Mean / t1/2 (hr), Mean: fed; for Cmax (ng/mL), Mean: healthy volunteers; for Cmax (ng/mL), Mean / AUC0-t (hr*ng/mL), Mean / tmax (hr), Median: n = 24
Text: Following screening, eligible healthy volunteer subjects were admitted to a single clinical study site and were randomized to 1 of 2 treatment sequences. […] In each period, a standardized breakfast was provided to subjects prior to administration of study drug (to compare the PK profiles in the clinically relevant fed state) and plasma samples were collected over a 48-hour period after dosing for evaluation of PK. Dosing between the 2 periods was separated by a minimum of 7 days. Subjects completed the study upon completion of the 48-hour post-dose assessments following dosing period 2.
All capsules were identical in size, shape, and external color.

[7] = Treatment = LYT-100, single 801 mg oral dose
[8] = Treatment = LYT-100, single 801 mg oral dose, n = 24 (LYT-110 n = 23)
[9] = Treatment = Pirfenidone, single 801 mg oral dose
[10] = Treatment = Pirfenidone, single 801 mg oral dose, n = 24 (LYT-111 n = 19)
[11] = after LYT-100 801 mg, metabolite/LYT-100
[12] = after LYT-100 801 mg, metabolite/LYT-100, molecular weight corrected
[13] = after Pirfenidone (LYT-101) 801 mg, metabolite/LYT-101
[14] = after Pirfenidone (LYT-101) 801 mg, metabolite/LYT-101, molecular weight corrected

## O=C(O)c1ccc(=O)n(-c2ccccc2)c1 [LYT-105, 5-carboxy-pirfenidone]
[1]
  AUC, % Change Fed vs Fasted: −5%
  Cmax, % Change Fed vs Fasted: −1.7%
  Tmax, % Change Fed vs Fasted: +33%
[2]; Day 1, Female rats
  Ratio of exposure (AUC), Group 4 (LYT-100 at 750 mg/kg) analyte / Group 5 (SD-559 at 750 mg/kg) analyte: 0.49
[2]; Day 1, Male rats
  Ratio of exposure (AUC), Group 4 (LYT-100 at 750 mg/kg) analyte / Group 5 (SD-559 at 750 mg/kg) analyte: 0.45
[2]; Day 28, Female rats
  Ratio of exposure (AUC), Group 4 (LYT-100 at 750 mg/kg) analyte / Group 5 (SD-559 at 750 mg/kg) analyte: 0.71
[2]; Day 28, Male rats
  Ratio of exposure (AUC), Group 4 (LYT-100 at 750 mg/kg) analyte / Group 5 (SD-559 at 750 mg/kg) analyte: 0.57
[2]
  Cmax in rat relative to human: ~9 fold
  Exposure in rats relative to humans after 28 days of daily dosing: ~7 fold
  Exposure (AUC) in rat relative to human: about 8 fold
  Dose proportionality of AUC0-24 over 250 to 750 mg/kg: dose proportional
  Dose proportionality of Cmax over 250 to 750 mg/kg: approximately dose proportional
[2]; rats, 750 mg/kg each
  Lower Cmax and exposure of SD-789 after SD-560 than of SD-789 after SD-559: approximately 50%
[3]; Huang 2013
  Plasma exposure as percent of the exposure to pirfenidone: approximately 50%
[3]; urine, after oral pirfenidone
  Share of recovered drug material excreted as this metabolite: > 95%
[4]
  Accumulation ratios (AUC96-108/AUC0-12) across all dose groups: ~1
[4]; 100 to 1000 mg BID, FIG. 25
  Dose dependence of AUC96-108 across all dose Cohorts: linear dose proportionality
[4]; Cohort 4, 750 mg BID
  Average ratio to the parent (M/P) by AUC: 0.45 (0.37-0.50)
[4]; Cohort 6, 1000 mg BID
  Average ratio to the parent (M/P) by AUC: 0.56 (0.44-0.66)
[4]; LYT-100 100 mg BID with food
  observed Cmax: 567 ng/mL
[4]; LYT-100 100 mg vs Huang et al. data extrapolated assuming dose proportionality, LYT-100 vs SD-559, SD-789 vs SD-789
  % difference (vs. 200 mg SD-559) Cmax: −23%
[4]; LYT-100 250 mg BID with food
  observed Cmax: 1170 ng/mL
[4]; LYT-100 250 mg vs Huang et al. data extrapolated assuming dose proportionality
  % difference (vs. 200 mg SD-559) Cmax: −37%
[4]; LYT-100 500 mg BID with food
  observed Cmax: 2360 ng/mL
[4]; LYT-100 500 mg vs Huang et al. data extrapolated assuming dose proportionality
  % difference (vs. 200 mg SD-559) Cmax: −36%
[4]; LYT-100 750 mg BID with food
  observed Cmax: 3370 ng/mL
[4]; LYT-100 750 mg vs Huang et al. data extrapolated assuming dose proportionality
  % difference (vs. 200 mg SD-559) Cmax: −39%
[4]; LYT-100 1000 mg BID with food
  observed Cmax: 4940 ng/mL
[4]; LYT-100 1000 mg vs Huang et al. data extrapolated assuming dose proportionality
  % difference (vs. 200 mg SD-559) Cmax: −33%
[4]; MAD study, all doses
  Average ratio of metabolite to the parent (mtp) by AUC: 0.45
[5]
  observed Cmax: 1476
[6]; [7]
  Cmax (ng/mL), Mean: 3970 ng/mL
  AUC0-t (hr*ng/mL), Mean: 23090 ng·h/mL
  tmax (hr), Median: 2.50 h
[6]; [8]
  % AUC extrap, Mean: 1.13%
  AUC(inf) (hr*ng/mL), Mean: 23350 ng·h/mL
  Kel (1/hr), Mean: 0.262 h⁻¹
  t1/2 (hr), Mean: 2.91 h
[6]; [9]
  Cmax (ng/mL), Mean: 5241 ng/mL
  AUC0-t (hr*ng/mL), Mean: 26932 ng·h/mL
  tmax (hr), Median: 3.00 h
[6]; [10]
  % AUC extrap, Mean: 0.843%
  AUC(inf) (hr*ng/mL), Mean: 27159 ng·h/mL
  Kel (1/hr), Mean: 0.288 h⁻¹
  t1/2 (hr), Mean: 2.55 h
[6]; [11]
  Metabolite/Parent Ratio, AUC0-∞, Median: 32.3%
  Metabolite/Parent Ratio, Cmax, Median: 33.5%
[6]; [12]
  Metabolite/Parent Ratio, AUC0-∞, Mean: 43.8%
  Metabolite/Parent Ratio, Cmax, Mean: 43.3%
[6]; after LYT-100 801 mg, metabolite/LYT-100, molecular weight corrected, listed as 5-carboxy-pirfenidone
  Metabolite/Parent Ratio, AUC0-∞, Mean: 43.8%
[6]; [13]
  Metabolite/Parent Ratio, AUC0-∞, Median: 53.7%
  Metabolite/Parent Ratio, Cmax, Median: 57.5%
[6]; [14]
  Metabolite/Parent Ratio, AUC0-∞, Mean: 65.9%
  Metabolite/Parent Ratio, Cmax, Mean: 68.1%
[6]; after Pirfenidone (LYT-101) 801 mg, metabolite/LYT-101, molecular weight corrected, listed as 5-carboxy-pirfenidone
  Metabolite/Parent Ratio, AUC0-∞, Mean: 65.9%
[6]; single 801 mg dose each
  Reduction of AUC after LYT-100 relative to pirfenidone: approximately 15%
  Reduction of Cmax after LYT-100 relative to pirfenidone: ~25%

## O=c1ccc(CO)cn1-c1ccccc1 [SD-788, 5-hydroxymethyl-pirfenidone]
[6]; LYT-100 vs pirfenidone, single 801 mg dose
  Formation greater in terms of overall systemic exposure (AUC) after administration of LYT-100: approximately 50%
[6]; [9]
  Cmax (ng/mL), Mean: 17.1 ng/mL
  AUC0-t (hr*ng/mL), Mean: 75.8 ng·h/mL
  tmax (hr), Median: 2.50 h
[6]; [10]
  % AUC extrap, Mean: 10.3%
  AUC(inf) (hr*ng/mL), Mean: 89.7 ng·h/mL
  Kel (1/hr), Mean: 0.367 h⁻¹
  t1/2 (hr), Mean: 2.04 h
[6]; [13]
  Metabolite/Parent Ratio, AUC0-∞, Median: 0.2%
  Metabolite/Parent Ratio, Cmax, Median: 0.2%
[6]; [14]
  Metabolite/Parent Ratio, AUC0-∞, Mean: 0.2%
  Metabolite/Parent Ratio, Cmax, Mean: 0.2%

## [2H]C([2H])(O)c1ccc(=O)n(-c2ccccc2)c1 [SD-790, d2-5-hydroxymethyl-pirfenidone]
[2]; Day 1, Female rats
  Ratio of exposure (AUC), Group 4 (LYT-100 at 750 mg/kg) analyte / Group 5 (SD-559 at 750 mg/kg) analyte: 2.50
[2]; Day 1, Male rats
  Ratio of exposure (AUC), Group 4 (LYT-100 at 750 mg/kg) analyte / Group 5 (SD-559 at 750 mg/kg) analyte: 2.22
[2]; Day 28, Female rats
  Ratio of exposure (AUC), Group 4 (LYT-100 at 750 mg/kg) analyte / Group 5 (SD-559 at 750 mg/kg) analyte: 2.59
[2]; Day 28, Male rats
  Ratio of exposure (AUC), Group 4 (LYT-100 at 750 mg/kg) analyte / Group 5 (SD-559 at 750 mg/kg) analyte: 2.54
[2]
  Cmax in rat relative to human: ~1825 fold
  Exposure in rats relative to humans after 28 days of daily dosing: ~1600 fold
  Exposure (AUC) in rat relative to human: about 1250 fold
  Dose proportionality of AUC0-24 over 250 to 750 mg/kg: dose proportional
  Dose proportionality of Cmax over 250 to 750 mg/kg: dose proportional
[2]; rats, 750 mg/kg each, all days, both genders
  Exposure and Cmax vs the non-deuterated corresponding metabolite (SD-788) from SD-559: almost twice
[4]
  Accumulation ratios (AUC96-108/AUC0-12) across all dose groups: ~1
[4]; Cohort 4, 750 mg BID
  Average ratio to the parent (M/P) by AUC: 0.0025 (0.0020-0.0029)
[4]; Cohort 6, 1000 mg BID
  Average ratio to the parent (M/P) by AUC: 0.0028 (0.0018-0.0038)
[6]; [7]
  Cmax (ng/mL), Mean: 20.6 ng/mL
  AUC0-t (hr*ng/mL), Mean: 111 ng·h/mL
  tmax (hr), Median: 2.50 h
[6]; [8]
  % AUC extrap, Mean: 10.1%
  AUC(inf) (hr*ng/mL), Mean: 124 ng·h/mL
  Kel (1/hr), Mean: 0.294 h⁻¹
  t1/2 (hr), Mean: 2.76 h
[6]; [11]
  Metabolite/Parent Ratio, AUC0-∞, Median: 0.2%
  Metabolite/Parent Ratio, Cmax, Median: 0.2%
[6]; [12]
  Metabolite/Parent Ratio, AUC0-∞, Mean: 0.2%
  Metabolite/Parent Ratio, Cmax, Mean: 0.2%

## Cc1ccc(=O)n(-c2ccc(O)cc2)c1 [SD-1050, 4′-hydroxy-pirfenidone]
[6]; [13]
  Metabolite/Parent Ratio, Cmax, Median: 0.0%
[6]; [14]
  Metabolite/Parent Ratio, Cmax, Mean: 0.0%

## [2H]C([2H])([2H])c1ccc(=O)n(-c2ccc(O)cc2)c1 [SD-1051, d3-4′-hydroxy-pirfenidone]
[2]; Day 1, Female rats
  Ratio of exposure (AUC), Group 4 (LYT-100 at 750 mg/kg) analyte / Group 5 (SD-559 at 750 mg/kg) analyte: 21.77
[2]; Day 1, Male rats
  Ratio of exposure (AUC), Group 4 (LYT-100 at 750 mg/kg) analyte / Group 5 (SD-559 at 750 mg/kg) analyte: 34.51
[2]; Day 28, Female rats
  Ratio of exposure (AUC), Group 4 (LYT-100 at 750 mg/kg) analyte / Group 5 (SD-559 at 750 mg/kg) analyte: 38.04
[2]
  Dose proportionality of AUC0-24 over 250 to 750 mg/kg: increased dose proportionally on Day 1
  Dose proportionality of Cmax over 250 to 750 mg/kg: less than dose proportional
[4]
  Accumulation ratios (AUC96-108/AUC0-12) across all dose groups: ~1
[4]; Cohort 4, 750 mg BID
  Average ratio to the parent (M/P) by AUC: 0.0017 (0.0012-0.0022)
[4]; Cohort 6, 1000 mg BID
  Average ratio to the parent (M/P) by AUC: 0.0037 (0.0030-0.0058)
[6]; after LYT-100
  Quantifiability in human plasma: not quantifiable
[6]; [11]
  Metabolite/Parent Ratio, AUC0-∞, Median: 0.1%
  Metabolite/Parent Ratio, Cmax, Median: 0.1%
[6]; [12]
  Metabolite/Parent Ratio, AUC0-∞, Mean: 0.1%
  Metabolite/Parent Ratio, Cmax, Mean: 0.1%

— patent US20230129866A1 (PureTech LYT 100, Inc., priority 2020, published 2023)
